ChEMBL document CHEMBL4507291 (2021)

What was measured:
[1] = target: Dual specificity tyrosine-phosphorylation-regulated kinase 1A (Homo sapiens) (UniProt Q13627)
[2] = system: Hepatocyte growth factor receptor (Homo sapiens), P08581 [Y1235D]
[3] = target: Cyclin-dependent kinase 4 (Homo sapiens) (UniProt P11802)
[4] = target: Mast/stem cell growth factor receptor Kit (Homo sapiens) (UniProt P10721)
[5] = target: T1, Alpha-2B adrenergic receptor (Homo sapiens) (UniProt P18089); details: Compound concentration 10.0 uM
T1 sequence (whole entry): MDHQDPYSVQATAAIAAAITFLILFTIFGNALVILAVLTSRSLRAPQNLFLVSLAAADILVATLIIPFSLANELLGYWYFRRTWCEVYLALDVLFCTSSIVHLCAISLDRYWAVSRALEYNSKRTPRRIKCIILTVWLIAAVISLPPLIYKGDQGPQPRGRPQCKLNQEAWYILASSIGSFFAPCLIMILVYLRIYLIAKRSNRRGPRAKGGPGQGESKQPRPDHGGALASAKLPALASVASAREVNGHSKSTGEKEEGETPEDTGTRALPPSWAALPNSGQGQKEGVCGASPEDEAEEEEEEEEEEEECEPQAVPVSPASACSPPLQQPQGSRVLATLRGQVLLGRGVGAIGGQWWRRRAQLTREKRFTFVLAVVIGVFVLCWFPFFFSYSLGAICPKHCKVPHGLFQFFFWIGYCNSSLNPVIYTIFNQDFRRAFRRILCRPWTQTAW

[6] = target: Vascular endothelial growth factor receptor 1 (Homo sapiens) (UniProt P17948)
Sequence of Vascular endothelial growth factor receptor 1 (Homo sapiens) (P17948 whole entry): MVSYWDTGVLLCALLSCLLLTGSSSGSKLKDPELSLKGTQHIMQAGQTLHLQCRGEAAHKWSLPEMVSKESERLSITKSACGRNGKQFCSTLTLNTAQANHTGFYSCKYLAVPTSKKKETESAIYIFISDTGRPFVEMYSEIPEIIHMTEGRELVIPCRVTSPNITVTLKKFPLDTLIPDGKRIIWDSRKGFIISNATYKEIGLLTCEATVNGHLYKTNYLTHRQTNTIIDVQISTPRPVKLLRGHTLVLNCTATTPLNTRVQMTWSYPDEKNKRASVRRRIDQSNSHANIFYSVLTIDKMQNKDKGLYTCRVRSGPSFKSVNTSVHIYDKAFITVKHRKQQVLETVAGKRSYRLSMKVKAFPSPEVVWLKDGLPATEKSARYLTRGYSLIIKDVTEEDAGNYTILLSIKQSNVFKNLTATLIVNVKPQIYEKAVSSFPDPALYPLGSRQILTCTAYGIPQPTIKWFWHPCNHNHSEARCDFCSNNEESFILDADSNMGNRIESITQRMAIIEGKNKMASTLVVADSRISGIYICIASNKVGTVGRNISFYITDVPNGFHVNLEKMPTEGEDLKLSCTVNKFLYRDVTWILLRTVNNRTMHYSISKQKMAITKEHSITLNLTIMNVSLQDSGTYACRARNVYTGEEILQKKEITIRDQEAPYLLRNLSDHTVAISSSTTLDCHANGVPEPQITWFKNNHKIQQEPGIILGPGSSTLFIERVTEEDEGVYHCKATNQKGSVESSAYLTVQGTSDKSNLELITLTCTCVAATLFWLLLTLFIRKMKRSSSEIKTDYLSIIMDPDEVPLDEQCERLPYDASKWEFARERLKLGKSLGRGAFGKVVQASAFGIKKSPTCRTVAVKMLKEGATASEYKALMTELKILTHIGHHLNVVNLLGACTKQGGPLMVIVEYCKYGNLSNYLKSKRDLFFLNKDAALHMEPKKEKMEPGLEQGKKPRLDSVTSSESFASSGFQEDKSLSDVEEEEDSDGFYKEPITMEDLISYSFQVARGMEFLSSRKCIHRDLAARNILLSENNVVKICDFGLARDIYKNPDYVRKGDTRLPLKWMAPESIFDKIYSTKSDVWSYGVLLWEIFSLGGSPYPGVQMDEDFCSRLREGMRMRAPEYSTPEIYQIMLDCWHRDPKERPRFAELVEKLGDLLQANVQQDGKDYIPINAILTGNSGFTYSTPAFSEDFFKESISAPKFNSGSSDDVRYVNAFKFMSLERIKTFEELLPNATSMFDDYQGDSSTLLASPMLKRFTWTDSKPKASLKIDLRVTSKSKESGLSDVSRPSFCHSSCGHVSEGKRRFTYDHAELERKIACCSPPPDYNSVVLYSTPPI

[7] = target: Mast/stem cell growth factor receptor Kit (Homo sapiens) (UniProt P10721); remark: listed apart in the source
[8] = system: Receptor-type tyrosine-protein kinase FLT3 (Homo sapiens), P36888 [N841I]
[9] = target: Cyclin-dependent kinase 4 (Homo sapiens) (UniProt P11802); remark: listed apart in the source
[10] = system: Fibroblast growth factor receptor 3 (Homo sapiens), P22607 [G697C]
[11] = target: Bone morphogenetic protein receptor type-1B (Homo sapiens) (UniProt O00238)
Sequence of Bone morphogenetic protein receptor type-1B (Homo sapiens) (O00238 whole entry): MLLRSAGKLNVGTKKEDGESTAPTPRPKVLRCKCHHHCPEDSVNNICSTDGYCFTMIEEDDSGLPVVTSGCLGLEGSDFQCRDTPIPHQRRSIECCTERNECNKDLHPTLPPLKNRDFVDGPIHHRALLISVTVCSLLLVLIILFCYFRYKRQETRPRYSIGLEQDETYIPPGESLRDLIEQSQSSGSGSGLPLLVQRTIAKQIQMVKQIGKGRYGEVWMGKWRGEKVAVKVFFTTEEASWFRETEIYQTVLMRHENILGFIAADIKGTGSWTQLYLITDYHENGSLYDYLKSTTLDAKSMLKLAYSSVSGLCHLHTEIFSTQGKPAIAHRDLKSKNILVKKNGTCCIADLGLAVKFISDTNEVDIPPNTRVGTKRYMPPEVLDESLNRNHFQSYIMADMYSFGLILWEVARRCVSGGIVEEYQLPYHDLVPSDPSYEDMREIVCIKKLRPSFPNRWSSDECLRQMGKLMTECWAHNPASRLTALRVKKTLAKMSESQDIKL

[12] = target: T2, Tyrosine-protein kinase ITK/TSK (Homo sapiens) (UniProt Q08881)
T2 sequence (whole entry): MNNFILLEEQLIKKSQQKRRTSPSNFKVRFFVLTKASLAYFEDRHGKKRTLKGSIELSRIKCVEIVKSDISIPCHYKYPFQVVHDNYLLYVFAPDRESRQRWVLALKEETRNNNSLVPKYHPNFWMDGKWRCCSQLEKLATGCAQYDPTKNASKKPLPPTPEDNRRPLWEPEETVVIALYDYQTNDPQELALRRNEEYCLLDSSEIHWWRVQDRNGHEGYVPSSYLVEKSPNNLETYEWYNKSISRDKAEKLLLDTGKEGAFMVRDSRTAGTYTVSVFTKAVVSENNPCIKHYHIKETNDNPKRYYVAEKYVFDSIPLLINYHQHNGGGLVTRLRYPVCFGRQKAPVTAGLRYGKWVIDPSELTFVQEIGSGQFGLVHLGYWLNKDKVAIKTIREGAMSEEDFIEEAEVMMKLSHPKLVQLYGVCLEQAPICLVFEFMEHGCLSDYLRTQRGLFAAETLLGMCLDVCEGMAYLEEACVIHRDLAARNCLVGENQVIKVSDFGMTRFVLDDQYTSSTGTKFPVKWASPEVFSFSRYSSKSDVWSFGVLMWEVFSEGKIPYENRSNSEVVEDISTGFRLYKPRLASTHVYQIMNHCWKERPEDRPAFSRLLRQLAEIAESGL

[13] = target: Wee1-like protein kinase (Homo sapiens) (UniProt P30291)
Sequence of Wee1-like protein kinase (Homo sapiens) (P30291 whole entry, looked up): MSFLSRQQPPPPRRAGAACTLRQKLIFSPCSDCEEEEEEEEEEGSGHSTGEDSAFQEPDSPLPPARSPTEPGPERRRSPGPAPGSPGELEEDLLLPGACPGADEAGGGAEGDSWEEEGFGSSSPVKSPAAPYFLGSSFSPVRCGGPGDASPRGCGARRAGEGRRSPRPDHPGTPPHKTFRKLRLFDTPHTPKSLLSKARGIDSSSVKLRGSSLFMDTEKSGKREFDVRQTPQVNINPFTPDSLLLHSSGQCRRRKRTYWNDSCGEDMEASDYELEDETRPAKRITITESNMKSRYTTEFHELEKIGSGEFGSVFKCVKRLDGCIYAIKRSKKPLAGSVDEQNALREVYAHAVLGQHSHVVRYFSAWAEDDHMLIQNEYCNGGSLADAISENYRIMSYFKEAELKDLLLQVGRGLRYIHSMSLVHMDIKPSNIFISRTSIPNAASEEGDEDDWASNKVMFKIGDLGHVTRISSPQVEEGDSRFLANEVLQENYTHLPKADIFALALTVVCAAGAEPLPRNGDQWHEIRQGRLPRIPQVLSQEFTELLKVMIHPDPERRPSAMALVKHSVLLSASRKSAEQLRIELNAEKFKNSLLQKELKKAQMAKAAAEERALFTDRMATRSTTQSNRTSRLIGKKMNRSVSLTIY

[14] = target: Cyclin-dependent kinase 5 (Homo sapiens) (UniProt Q00535)
[15] = target: Tyrosine-protein kinase Fyn (Homo sapiens) (UniProt P06241)
Sequence of Tyrosine-protein kinase Fyn (Homo sapiens) (P06241 2-537 limits assumed): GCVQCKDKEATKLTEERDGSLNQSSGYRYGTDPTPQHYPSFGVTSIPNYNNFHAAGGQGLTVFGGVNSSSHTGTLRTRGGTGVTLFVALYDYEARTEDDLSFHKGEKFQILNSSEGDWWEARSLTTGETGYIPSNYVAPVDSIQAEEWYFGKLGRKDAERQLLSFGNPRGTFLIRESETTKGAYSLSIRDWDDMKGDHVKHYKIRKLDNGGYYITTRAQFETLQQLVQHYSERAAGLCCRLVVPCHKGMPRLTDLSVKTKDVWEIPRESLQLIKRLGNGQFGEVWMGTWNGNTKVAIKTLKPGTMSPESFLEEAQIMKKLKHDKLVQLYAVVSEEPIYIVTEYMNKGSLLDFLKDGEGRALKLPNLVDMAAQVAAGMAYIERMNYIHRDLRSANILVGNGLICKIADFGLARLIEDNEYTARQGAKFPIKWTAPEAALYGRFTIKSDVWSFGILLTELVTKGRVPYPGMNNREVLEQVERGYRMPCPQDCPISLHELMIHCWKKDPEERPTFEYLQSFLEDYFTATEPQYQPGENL

[16] = target: T3, Muscle, skeletal receptor tyrosine-protein kinase (Homo sapiens) (UniProt O15146)
T3 sequence (whole entry): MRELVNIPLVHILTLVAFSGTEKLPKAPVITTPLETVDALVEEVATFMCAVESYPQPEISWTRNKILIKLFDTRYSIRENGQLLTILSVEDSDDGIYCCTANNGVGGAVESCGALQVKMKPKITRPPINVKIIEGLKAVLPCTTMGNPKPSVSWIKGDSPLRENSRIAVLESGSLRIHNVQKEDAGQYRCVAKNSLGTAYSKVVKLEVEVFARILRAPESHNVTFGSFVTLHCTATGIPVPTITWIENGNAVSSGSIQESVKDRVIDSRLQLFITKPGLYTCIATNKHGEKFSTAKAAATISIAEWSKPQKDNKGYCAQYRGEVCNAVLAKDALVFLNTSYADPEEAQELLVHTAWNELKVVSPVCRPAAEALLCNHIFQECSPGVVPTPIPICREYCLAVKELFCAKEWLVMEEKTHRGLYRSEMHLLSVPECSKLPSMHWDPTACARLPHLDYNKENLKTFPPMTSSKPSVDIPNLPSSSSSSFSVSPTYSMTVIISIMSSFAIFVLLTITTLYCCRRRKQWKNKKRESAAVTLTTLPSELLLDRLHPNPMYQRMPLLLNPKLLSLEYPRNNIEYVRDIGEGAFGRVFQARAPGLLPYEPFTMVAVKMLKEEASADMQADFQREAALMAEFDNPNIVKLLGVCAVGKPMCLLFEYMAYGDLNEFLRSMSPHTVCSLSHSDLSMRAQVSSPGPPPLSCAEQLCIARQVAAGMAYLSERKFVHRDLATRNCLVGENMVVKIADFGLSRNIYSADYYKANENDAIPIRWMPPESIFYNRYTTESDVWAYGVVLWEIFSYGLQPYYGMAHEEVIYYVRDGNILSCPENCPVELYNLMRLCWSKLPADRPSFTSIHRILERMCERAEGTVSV

[17] = target: Serine/threonine-protein kinase mTOR (Homo sapiens) (UniProt P42345)
[18] = target: Protein kinase C delta type (Homo sapiens) (UniProt Q05655)
[19] = target: Ribosomal protein S6 kinase alpha-4 (Homo sapiens) (UniProt O75676)
Sequence of Ribosomal protein S6 kinase alpha-4 (Homo sapiens) (O75676 whole entry, looked up): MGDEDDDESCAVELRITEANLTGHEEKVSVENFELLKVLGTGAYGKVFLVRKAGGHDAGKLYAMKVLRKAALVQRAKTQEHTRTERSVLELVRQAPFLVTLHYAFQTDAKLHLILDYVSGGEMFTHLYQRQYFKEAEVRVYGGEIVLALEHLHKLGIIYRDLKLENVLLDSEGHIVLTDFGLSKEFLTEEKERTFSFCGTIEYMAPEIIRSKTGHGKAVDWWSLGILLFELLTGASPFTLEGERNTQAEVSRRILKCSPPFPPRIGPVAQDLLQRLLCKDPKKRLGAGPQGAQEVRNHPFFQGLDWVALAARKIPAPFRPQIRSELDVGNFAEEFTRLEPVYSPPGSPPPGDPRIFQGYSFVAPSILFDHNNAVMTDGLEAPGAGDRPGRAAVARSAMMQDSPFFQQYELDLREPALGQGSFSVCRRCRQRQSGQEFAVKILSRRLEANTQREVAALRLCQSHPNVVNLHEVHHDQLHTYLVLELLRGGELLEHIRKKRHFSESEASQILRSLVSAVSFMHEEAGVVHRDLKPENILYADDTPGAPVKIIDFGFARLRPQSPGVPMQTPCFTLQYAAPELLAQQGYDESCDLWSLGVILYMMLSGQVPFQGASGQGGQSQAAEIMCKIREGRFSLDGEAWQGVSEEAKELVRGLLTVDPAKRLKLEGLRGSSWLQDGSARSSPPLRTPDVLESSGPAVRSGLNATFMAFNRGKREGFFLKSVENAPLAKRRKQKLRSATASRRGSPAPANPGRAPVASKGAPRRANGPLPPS

[20] = Compound concentration 1000.0 nM
[21] = Compound concentration 100.0 nM

Sequence of Cyclin-dependent kinase 4 (Homo sapiens) (P11802 whole entry): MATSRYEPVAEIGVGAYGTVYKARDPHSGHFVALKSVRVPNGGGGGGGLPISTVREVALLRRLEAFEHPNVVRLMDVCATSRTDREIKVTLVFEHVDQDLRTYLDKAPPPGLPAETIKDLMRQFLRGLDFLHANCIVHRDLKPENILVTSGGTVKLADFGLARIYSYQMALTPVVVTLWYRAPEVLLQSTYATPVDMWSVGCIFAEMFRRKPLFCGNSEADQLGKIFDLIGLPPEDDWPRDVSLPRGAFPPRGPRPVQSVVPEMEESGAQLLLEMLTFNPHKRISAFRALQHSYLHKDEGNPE
Sequence of Mast/stem cell growth factor receptor Kit (Homo sapiens) (P10721 whole entry): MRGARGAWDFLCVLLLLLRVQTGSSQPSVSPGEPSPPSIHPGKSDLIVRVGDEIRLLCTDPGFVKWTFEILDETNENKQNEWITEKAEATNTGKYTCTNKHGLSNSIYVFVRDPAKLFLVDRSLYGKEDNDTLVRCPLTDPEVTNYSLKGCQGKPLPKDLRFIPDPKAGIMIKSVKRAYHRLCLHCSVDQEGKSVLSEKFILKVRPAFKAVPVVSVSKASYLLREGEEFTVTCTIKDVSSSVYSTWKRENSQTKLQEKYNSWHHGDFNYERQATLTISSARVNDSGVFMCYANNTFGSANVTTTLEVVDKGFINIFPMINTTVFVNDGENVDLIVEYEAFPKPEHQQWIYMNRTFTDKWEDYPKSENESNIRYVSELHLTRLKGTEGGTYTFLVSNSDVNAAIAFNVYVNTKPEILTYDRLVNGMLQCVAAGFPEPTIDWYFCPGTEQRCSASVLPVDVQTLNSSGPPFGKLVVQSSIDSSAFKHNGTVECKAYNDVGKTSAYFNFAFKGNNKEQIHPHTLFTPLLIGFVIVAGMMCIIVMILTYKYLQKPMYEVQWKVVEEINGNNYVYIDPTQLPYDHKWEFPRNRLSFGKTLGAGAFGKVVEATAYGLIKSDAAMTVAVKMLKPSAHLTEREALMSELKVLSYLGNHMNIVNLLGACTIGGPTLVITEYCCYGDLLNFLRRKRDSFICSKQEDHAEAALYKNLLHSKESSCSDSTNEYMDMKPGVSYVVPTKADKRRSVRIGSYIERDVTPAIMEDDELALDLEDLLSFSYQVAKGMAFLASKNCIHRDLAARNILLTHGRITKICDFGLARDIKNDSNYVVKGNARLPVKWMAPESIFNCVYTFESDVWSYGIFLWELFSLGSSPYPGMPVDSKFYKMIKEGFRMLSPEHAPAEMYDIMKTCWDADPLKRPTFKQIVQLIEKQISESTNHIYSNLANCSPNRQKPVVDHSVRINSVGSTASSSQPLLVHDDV

Q: Which results are given for `C[C@@H]1CN(c2cc(-c3nn(C)c4ccc(OC5(C)CC5)cc34)ncn2)C[C@H](C)O1` [MLi-2-NC]?
A: residual activity [1, 20]: 81%; residual activity [2, 20]: 87%; residual activity [3, 20]: 71%; residual activity [4, 20]: 97%; inhibition [5]: 27.2%; residual activity [6, 20]: 95%; residual activity [7, 20]: 100%; residual activity [8, 20]: 85%; residual activity [9, 20]: 91%; residual activity [10, 20]: 100%; residual activity [11, 20]: 77%; residual activity [12, 20]: 96%; residual activity [13, 20]: 100%; residual activity [14, 20]: 100%; residual activity [15, 20]: 98%; residual activity [16, 20]: 92%; residual activity [17, 20]: 100%; residual activity [18, 20]: 100%; residual activity [19, 20]: 100%

Q: Which results are given for `C[C@@H]1CN(c2cc(-c3n[nH]c4ccc(OC5(C)CC5)cc34)ncn2)C[C@H](C)O1` [MLi-2]?
A: residual activity [1, 21]: 95%; residual activity [2, 21]: 92%; residual activity [3, 21]: 68%; residual activity [4, 21]: 70%; inhibition [5]: 6.1%; residual activity [6, 21]: 100%; residual activity [7, 21]: 82%; residual activity [8, 21]: 46%; residual activity [9, 21]: 71%; residual activity [10, 21]: 86%; residual activity [11, 21]: 81%; residual activity [12, 21]: 87%; residual activity [13, 21]: 97%; residual activity [14, 21]: 100%; residual activity [15, 21]: 100%; residual activity [16, 21]: 56%; residual activity [17, 21]: 99%; residual activity [18, 21]: 100%; residual activity [19, 21]: 100%
